Source: US20240101549A1, “N-(2-(4-CYANOTHIAZOLIDIN-3-YL)-2-OXOETHYL)-QUINOLINE-4-CARBOXAMIDES” (AstraZeneca AB, priority 2020, published 2024)
Converted amounts (≈) assume the structure as drawn. Read-outs that look alike come from different tables or passages of the source.

Columns and labels:
Caco-2 cell permeability = assay type: in vitro ADME; conditions: human
Description: (§1) Caco-2 cell permeability was measured as described in Mol Pharm 2017, 14, 1601.

Rat Hepatocytes (rHep) = assay: Metabolic stability in rat hepatocytes (rHep); assay type: in vitro ADME; conditions: n = 1 or geometric mean of n = 2-3
[1] = Metabolic stability in human liver microsomes (HLM); assay type: in vitro ADME; conditions: n = 1 or average of n = 2-3
Description: Metabolic stability in HLM was measured as described in J Comput Aided Mol Des 2015, 29, 795.

Kinetic solubility = assay type: physicochemical; conditions: kinetic from dmso stock
Description: Kinetic solubility was measured as described in Comput Aided Mol Des 2015, 29, 795.

Caco-2 cell = Caco-2 cell permeability; assay type: in vitro ADME; conditions: bidirectional (ABBA); for Caco2 Bidirectional (ABBA) A to B Papp / Caco2 Bidirectional (ABBA) B to A Papp: n = 1 or average of n = 2-4
Description: as §1

FAP = FAP (Macaca fascicularis, UniProt A0A2K5VGH4); assay: FAP plasma inhibition assay, cynomolgus plasma; assay type: biochemical; conditions: cynomolgus plasma diluted 1:40, 75 μM Ala-Pro-AMC; n = 1; read-out: FAP Cyno Plasma IC50
Description: D. FAP Plasma Inhibition Assay This assay was adapted from the method described in Example 237 for detection of FAP target engagement enzyme activity in plasma. […] Compounds were tested using 10 CR, 3 fold dilution series from 500 nM FAC. Two replicates for each assay point were run on the same plate. A fluorescence blank read was taken before substrate addition. […] Plates were incubated for 40 min at rt in the dark. […] IC50 values were determined by plotting % inhibition versus log compound concentration.

[2] = Caco-2, AB intrinsic, n = 1 or average of n = 2-4, read-out: Caco2 AB Intrinsic Papp

Sequence of FAP (A0A2K5VGH4 entry or part of it): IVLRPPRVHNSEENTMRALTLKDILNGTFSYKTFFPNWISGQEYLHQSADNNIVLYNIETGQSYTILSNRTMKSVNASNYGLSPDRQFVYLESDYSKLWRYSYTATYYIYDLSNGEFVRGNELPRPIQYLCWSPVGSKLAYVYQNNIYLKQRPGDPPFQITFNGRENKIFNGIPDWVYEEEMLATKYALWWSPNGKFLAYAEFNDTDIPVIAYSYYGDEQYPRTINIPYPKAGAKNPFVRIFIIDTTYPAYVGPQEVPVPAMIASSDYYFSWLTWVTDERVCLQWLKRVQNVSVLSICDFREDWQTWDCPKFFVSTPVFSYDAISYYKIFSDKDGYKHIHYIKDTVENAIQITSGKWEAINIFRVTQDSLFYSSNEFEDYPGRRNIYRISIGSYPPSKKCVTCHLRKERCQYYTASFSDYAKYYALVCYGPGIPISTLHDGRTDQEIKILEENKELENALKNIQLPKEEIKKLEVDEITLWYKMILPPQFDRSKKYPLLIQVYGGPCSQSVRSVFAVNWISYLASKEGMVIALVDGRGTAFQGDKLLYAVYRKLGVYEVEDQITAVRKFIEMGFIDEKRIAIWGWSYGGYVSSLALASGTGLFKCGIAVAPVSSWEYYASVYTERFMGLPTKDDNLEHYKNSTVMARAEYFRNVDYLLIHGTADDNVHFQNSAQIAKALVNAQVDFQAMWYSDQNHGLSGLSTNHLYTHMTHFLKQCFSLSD

| rHep CLint (Rat Hepatocytes (rHep)) [μL/min/1E6] | microsomal CLint [1] [µL/min/mg] | solubility (Kinetic solubility) [µM] | Structure (SMILES) | other results |
| --- | --- | --- | --- | --- |
| 12 | 30 |  | COC1CCCN(c2ccc3nccc(C(=O)NCC(=O)N4CSC[C@H]4C#N)c3c2)C1 (mixture of isomers) [Example 41, N-(2-((R)-4-Cyanothiazolidin-3-yl)-2-oxoethyl)-6-((RS)-3-methoxypiperidin-1-yl)quinoline-4-carboxamide] | Papp A→B (Caco-2 cell permeability; [2]): 16 ×10⁻⁶ cm/s |
| 15 |  | 800 (≈ 381 µg/mL) | N#C[C@@H]1CSCN1C(=O)CNC(=O)c1ccnc2ccc(-c3ccnn3C3CCCCO3)cc12 (mixture of isomers) [Example 176] |  |
| 22 | 20 |  | CC1(F)CCN(c2ccc3nccc(C(=O)NCC(=O)N4CSC[C@H]4C#N)c3c2)C1 (mixture of isomers) [Example 198, N-(2-((R)-4-Cyanothiazolidin-3-yl)-2-oxoethyl)-6-((RS)-3-fluoro-3-methylpyrrolidin-1-yl)quinoline-4-carboxamide] |  |
| <1 | < 3 | 50 (≈ 22.4 µg/mL) | N#C[C@@H]1CSCN1C(=O)CNC(=O)c1ccnc2ccc(N3CC(O)C(F)(F)C3)cc12 (mixture of isomers) [Example 224, N-(2-((R)-4-Cyanothiazolidin-3-yl)-2-oxoethyl)-6-((RS)-3,3-difluoro-4-hydroxypyrrolidin-1-yl)quinoline-4-carboxamide] | Papp A→B (Caco-2 cell permeability; [2]): 1.2 ×10⁻⁶ cm/s |
| 35 |  | 800 (≈ 384 µg/mL) | N#C[C@@H]1CSCN1C(=O)CNC(=O)c1ccnc2ccc(N3CCOCC3C(F)(F)F)cc12 (single isomer, unassigned) [Example 85, N-(2-((R)-4-Cyanothiazolidin-3-yl)-2-oxoethyl)-6-((R*)-3-(trifluoromethyl)-morpholino)quinoline-4-carboxamide] |  |
| 250 | > 300 |  | N#C[C@@H]1CSCN1C(=O)CNC(=O)c1ccnc2ccc(N3CCCC3C3CC3)cc12 (single isomer, unassigned) [Example 199, N-(2-((R)-4-Cyanothiazolidin-3-yl)-2-oxoethyl)-6-((R*)-2-cyclopropyl-pyrrolidin-1-yl)quinoline-4-carboxamide] |  |
| >300 |  |  | N#C[C@@H]1CSCN1C(=O)CNC(=O)c1ccnc2ccc(N3CCCC3C3CC3)cc12 (single isomer, unassigned) [Example 200, N-(2-((R)-4-Cyanothiazolidin-3-yl)-2-oxoethyl)-6-((R*)-2-cyclopropyl-pyrrolidin-1-yl)quinoline-4-carboxamide] | HLM CLint [1]: >300 µL/min/mg |
| <1 | < 3 | 90 (≈ 38.1 µg/mL) | CC1CCN(c2ccc3nccc(C(=O)NCC(=O)N4CSC[C@H]4C#N)c3c2)C1=O (single isomer, unassigned) [Example 201, N-(2-((R)-4-Cyanothiazolidin-3-yl)-2-oxoethyl)-6-((R*)-3-methyl-2-oxopyrrolidin-1-yl)quinoline-4-carboxamide] | Papp A→B (Caco-2 cell permeability; [2]): 4.8 ×10⁻⁶ cm/s |
| 2.9 |  |  | CC1CCCN(c2ccc3nccc(C(=O)NCC(=O)N4CSC[C@H]4C#N)c3c2)C1=O (single isomer, unassigned) [Example 203, N-(2-((R)-4-Cyanothiazolidin-3-yl)-2-oxoethyl)-6-((R*)-3-methyl-2-oxopiperidin-1-yl)quinoline-4-carboxamide] | Papp A→B (Caco-2 cell permeability; Caco-2, bidirectional (ABBA), A to B, n = 1 or average of n = 2-4, read-out: Caco2 Bidirectional (ABBA) A to B Papp): 0.4 ×10⁻⁶ cm/s; Papp B→A (Caco-2 cell permeability; Caco-2, bidirectional (ABBA), B to A, n = 1 or average of n = 2-4, read-out: Caco2 Bidirectional (ABBA) B to A Papp): 8 ×10⁻⁶ cm/s; efflux ratio (Caco-2 cell permeability; Caco-2, bidirectional (ABBA), read-out: Caco2 Bidirectional (ABBA) Efflux Ratio): 20 |
| 1.8 | 8 |  | CC1CCCN(c2ccc3nccc(C(=O)NCC(=O)N4CSC[C@H]4C#N)c3c2)C1=O (single isomer, unassigned) [Example 204, N-(2-((R)-4-Cyanothiazolidin-3-yl)-2-oxoethyl)-6-((R*)-3-methyl-2-oxopiperidin-1-yl)quinoline-4-carboxamide] |  |
|  | 27 | 230 (≈ 99.2 µg/mL) | N#C[C@@H]1CSCN1C(=O)CNC(=O)c1ccnc2ccc(N3C[C@@H](F)[C@H](F)C3)cc12 (single isomer, unassigned) [Example 214] |  |
|  |  |  | CC1(C)COC12CN(c1ccc3nccc(C(=O)NCC(=O)N4CSC[C@H]4C#N)c3c1)C2 [Example 18, (R)—N-(2-(4-Cyanothiazolidin-3-yl)-2-oxoethyl)-6-(3,3-dimethyl-1-oxa-6-azaspiro[3.3]heptan-6-yl)quinoline-4-carboxamide] | Papp A→B (Caco-2 cell permeability; [2]): 13 ×10⁻⁶ cm/s; Caco2 Bidirectional (ABBA) Efflux Ratio (Caco-2 cell): 34; Caco2 Bidirectional (ABBA) A to B Papp (Caco-2 cell): 0.90 1E−6 · cm/s; Caco2 Bidirectional (ABBA) B to A Papp (Caco-2 cell): 31 1E−6 · cm/s |
|  |  | 850 (≈ 386 µg/mL) | COC1(C)CCN(c2ccc3nccc(C(=O)NCC(=O)N4CSC[C@H]4C#N)c3c2)CC1 [Example 42, (R)—N-(2-(4-Cyanothiazolidin-3-yl)-2-oxoethyl)-6-(4-methoxy-4-methylpiperidin-1-yl)quinoline-4-carboxamide] |  |
|  |  |  | N#C[C@@H]1CSCN1C(=O)CNC(=O)c1ccnc2ccc(N3CCOC4(CCOCC4)C3)cc12 [Example 99, (R)—N-(2-(4-cyanothiazolidin-3-yl)-2-oxoethyl)-6-(1,9-dioxa-4-azaspiro[5.5]undecan-4-yl)quinoline-4-carboxamide] | Caco2 Bidirectional (ABBA) Efflux Ratio (Caco-2 cell): 46; Caco2 Bidirectional (ABBA) A to B Papp (Caco-2 cell): 0.46 1E−6 · cm/s; Caco2 Bidirectional (ABBA) B to A Papp (Caco-2 cell): 21 1E−6 · cm/s |
|  |  |  | N#C[C@@H]1CSCN1C(=O)CNC(=O)c1ccnc2ccc(N3CC4(CC(F)C4)C3)cc12 [Example 155, (R)—N-(2-(4-Cyanothiazolidin-3-yl)-2-oxoethyl)-6-(6-fluoro-2-azaspiro[3.3]heptan-2-yl)quinoline-4-carboxamide] | Caco2 Bidirectional (ABBA) Efflux Ratio (Caco-2 cell): 6.5; Caco2 Bidirectional (ABBA) A to B Papp (Caco-2 cell): 4.2 1E−6 · cm/s; Caco2 Bidirectional (ABBA) B to A Papp (Caco-2 cell): 27 1E−6 · cm/s |
|  |  |  | N#C[C@@H]1CSCN1C(=O)CNC(=O)c1ccnc2ccc(N3CC4(COC4)C3)cc12 [Example 166, (R)—N-(2-(4-Cyanothiazolidin-3-yl)-2-oxoethyl)-6-(2-oxa-6-azaspiro[3.3]heptan-6-yl)quinoline-4-carboxamide] | Papp A→B (Caco-2 cell permeability; [2]): 2 ×10⁻⁶ cm/s; Caco2 Bidirectional (ABBA) Efflux Ratio (Caco-2 cell): 24; Caco2 Bidirectional (ABBA) A to B Papp (Caco-2 cell): 0.56 1E−6 · cm/s; Caco2 Bidirectional (ABBA) B to A Papp (Caco-2 cell): 13 1E−6 · cm/s; IC50 (FAP): 0.3 nM |

| Structure (SMILES) | rHep CLint (Rat Hepatocytes (rHep)) [μL/min/1E6] | microsomal CLint [1] [µL/min/mg] | solubility (Kinetic solubility) [µM] | other results |
| --- | --- | --- | --- | --- |
| N#C[C@@H]1CSCN1C(=O)CNC(=O)c1ccnc2ccc(N3CC4(CCC4)C3)cc12 [Example 17, (R)—N-(2-(4-Cyanothiazolidin-3-yl)-2-oxoethyl)-6-(2-azaspiro[3.3]heptan-2-yl)quinoline-4-carboxamide] |  | 48 |  |  |
